Experimental data published in EP4567035A1, “NOVEL COMPOUND AS HYPOXIA-INDUCIBLE FACTOR 1(HIF-1) INHIBITOR OR VASCULAR ENDOTHELIAL GROWTH FACTOR (VEGF) INHIBITOR, AND PHARMACEUTICAL COMPOSITION COMPRISING SAME” (Nextgen Bioscience Co., Ltd., priority 2022, dated 2024).
Where two headings read alike, the source gives them in different places.

Tests used:
[1] = system: VEGF; experiment: Evaluation of VEGF protein secretion level (Human VEGF ELISA) in ARPE-19 cell medium under hypoxic conditions; type: cell-based
Method: (§1) ARPE-19 cells (Human retinal pigment epithelial cells, ATCC CRL-2302) were cultured in DMEM/F12 (LM002-08, Welgene) medium containing 10% fetal bovine serum (FBS, 16000-044, Gibco) in an incubator at 37°C with 5% carbon dioxide. When the cells grew sufficiently, they were cultured in experimental culture dishes for protein isolation and medium supernatant acquisition.
(§2) Cells were detached from the culture dish using TrypLE™ Express (Gibco). After centrifugation at 1000 rpm for 3 minutes, the supernatant was removed. The cells were counted and seeded into new culture dishes. Normoxic conditions were maintained by culturing the cells in a 37°C incubator with 5% carbon dioxide, and hypoxic conditions were maintained by culturing the cells in a hypoxic incubator with 1% oxygen, 5% carbon dioxide, and 94% nitrogen gas.
The expression of the downstream gene, angiogenesis inducer VEGF, is regulated by HIF-1α, a major transcription factor under hypoxic conditions, and the level of secreted VEGF protein can be quantitatively confirmed through ELISA (Enzyme Linked Immunosorbent Assay, Human VEGF Quantikine ELISA Kit, R&D systems). For this purpose, the following experiment was conducted.
The compounds of each Example were diluted to 0.1 nM, 1 nM, 3 nM, 10 nM, 30 nM, 100 nM, 300 nM, 1 µM and 10 µM in DMEM/F12 medium containing 1% fetal bovine serum, pretreated for 2 hours, and cultured for 24 hours under hypoxic conditions to obtain the cell medium supernatant. The supernatant was centrifuged at 1000 rpm for 3 minutes, and a specific amount was treated with a VEGF ELISA assay kit and the absorbance value was measured at 450 nm to quantitatively confirm the level of VEGF protein (see Table 1 below).
Based on the results of secreted VEGF protein expression levels in cell media treated with compounds diluted at concentrations ranging from 10 µM to 0.1 nM, the concentration range of the compound at which the secreted VEGF protein level was reduced by 50% or less compared to the untreated control group was derived.

[2] = target: T1, HIF-1α (Homo sapiens, UniProt Q16665); experiment: Analysis of HIF-1α protein expression (Western blot) in ARPE-19 cells under mixed hypoxic condition; type: cell-based; conditions: concentration range at which HIF-1α expression is reduced by 50% vs untreated control
T1 construct: endogenous in cells; host or cells: ARPE-19 (ATCC CRL-2302)
T1 sequence (Q16665 whole entry): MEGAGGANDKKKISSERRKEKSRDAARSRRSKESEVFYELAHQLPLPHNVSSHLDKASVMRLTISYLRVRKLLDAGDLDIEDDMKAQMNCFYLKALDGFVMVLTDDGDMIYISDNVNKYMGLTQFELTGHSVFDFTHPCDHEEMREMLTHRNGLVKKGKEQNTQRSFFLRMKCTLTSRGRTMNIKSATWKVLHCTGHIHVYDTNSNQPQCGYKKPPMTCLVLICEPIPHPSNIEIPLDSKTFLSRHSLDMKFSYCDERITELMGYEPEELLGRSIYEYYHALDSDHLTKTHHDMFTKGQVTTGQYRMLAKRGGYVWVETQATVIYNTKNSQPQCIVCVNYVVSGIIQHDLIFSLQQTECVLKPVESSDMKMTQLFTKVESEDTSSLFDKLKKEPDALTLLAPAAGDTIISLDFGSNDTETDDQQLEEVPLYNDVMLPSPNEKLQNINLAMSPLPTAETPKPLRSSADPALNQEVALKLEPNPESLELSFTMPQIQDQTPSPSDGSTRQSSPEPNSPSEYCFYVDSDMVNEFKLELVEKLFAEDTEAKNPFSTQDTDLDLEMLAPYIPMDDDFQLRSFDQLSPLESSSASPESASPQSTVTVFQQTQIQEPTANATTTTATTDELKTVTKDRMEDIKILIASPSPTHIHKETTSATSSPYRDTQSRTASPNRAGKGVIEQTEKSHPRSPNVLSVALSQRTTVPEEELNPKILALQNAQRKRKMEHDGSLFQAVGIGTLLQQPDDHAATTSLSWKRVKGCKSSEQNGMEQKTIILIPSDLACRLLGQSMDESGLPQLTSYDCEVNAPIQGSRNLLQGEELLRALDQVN
Method: as §1, §2
In a disease of macular degeneration, hypoxia is a very important condition, and since the expression of downstream genes is regulated by HIF-1α, a transcription factor that is stabilized in hypoxic conditions, the following experiment was conducted to confirm this.
Mixed hypoxic condition was used for HIF-1α stability experiments, in which hypoxia was induced with 1% oxygen and the stability of HIF-1α was enhanced by treatment with cobalt chloride (CoCl2).
The compounds of each Example were diluted to 0.1 nM, 1 nM, 3 nM, 10 nM, 30 nM, 100 nM, 300 nM, 1 µM, and 10 µM in DMEM/F12 medium without fetal bovine serum, pretreated for 16 hours or 2 hours, and cultured for 1 hour or 24 hours in a mixed hypoxic condition. The cell medium was discarded, and protein lysates were obtained by rapidly treating with protein lysis buffer (RIPA Lysis and Extraction buffer, Thermo Fisher Scientific). LDS (4X Bolt ™ LDS Sample buffer) and reducing agent (10X Bolt ™ Sample Reducing Agent) were added together to the protein lysate, and heated at 70°C for 10 minutes. The lysate was separated by electrophoresis on a 4-12% Bis-Tris gel, transferred to a PVDF membrane, and blocked with 3% BSA (Albumin, Bovine, Fraction V, MPbio). The membrane was incubated overnight at 4°C with a mixture of anti-HIF-1α (ab179483, abcam) and anti-b-actin (MA515739, Invitrogen) antibodies at a ratio of 1:4000. The following day, the membrane was treated with a peroxidase-conjugated secondary antibody for 1 hour at room temperature, and the target protein was expressed using an ECL solution (Clarity ™ Western ECL substrate, Bio-rad) and quantified.
Based on the results of the expression level of HIF-1α in cells treated with compounds diluted from 10 µM to 0.1 nM, the concentration range of the compound at which the expression level of HIF-1α was reduced by 50% or less compared to the untreated control group was derived.

[3] = ARPE-19 cells, pretreated 2 hours, 24 hours hypoxic conditions, secreted VEGF in medium supernatant by ELISA, concentration range reducing VEGF by 50% vs untreated control, read-out: IC50 VEGF
[4] = values marked * in the table, mixed hypoxic condition (1% oxygen + CoCl2) for 24 hours, read-out: IC50 HIF-1α, Hypoxia(24h)
[5] = mixed hypoxic condition (1% oxygen + CoCl2) for 1 hour, read-out: IC50 HIF-1α Hypoxia (1 hour)
[6] = ARPE-19 cells, pretreated 2 hours, 24 hours hypoxic conditions, ELISA, read-out: concentration at which the secreted VEGF protein level was suppressed to less than 50%
[7] = Experimental Example 2 (HIF-1α Western blot), read-out: concentration at which the expression level of VEGF was suppressed to less than 50%

Row | IC50 [1, 3] [nM] | DC50 [2, 4] [nM] | DC50 [2, 5] [nM] | IC50 [1, 6] [nM] | IC50 [1, 7] [nM] | SMILES
1 | < 100 | < 100 |  |  |  | O=C(NCc1cc(F)cc(-c2cnn(-c3ccc(F)cc3)c2)c1)c1ncnc2nc(C3CCC(F)(F)C3)[nH]c12 (single isomer, unassigned) [84(E1), 8-(3,3-Difluorocyclopentyl)-N-(3-fluoro-5-(1-(4-fluorophenyl)-1H-pyrazol-4-yl)benzyl)-7H-purine-6-carboxamide]
2 | > 10000 | 1000 to 10000 |  |  |  | O=C(NCc1cc(F)cc(-c2cnn(-c3ccc(F)cc3)c2)c1)c1ncnc2nc(C3CC(F)C3)[nH]c12 (single isomer, unassigned) [102(A), N-(3-Fluoro-5-(1-(4-fluorophenyl)-1H-pyrazol-4-yl)benzyl)-8-(3-fluorocyclobutyl)-7H-purine-6-carboxamide]
3 | 100 to 1000 | 100 to 1000 |  |  |  | O=C(NCc1cc(F)cc(-c2cnn(-c3ccc(F)cc3)c2)c1)c1ncnc2nc(C3CC(F)C3)[nH]c12 (single isomer, unassigned) [102(B), N-(3-Fluoro-5-(1-(4-fluorophenyl)-1H-pyrazol-4-yl)benzyl)-8-(3-fluorocyclobutyl)-7H-purine-6-carboxamide]
4 | > 10000 | > 10000 |  |  |  | COC(=O)C1CC(c2nc3ncnc(C(=O)NCc4cc(F)cc(-c5cnn(-c6ccc(F)cc6)c5)c4)c3[nH]2)C1 (single isomer, unassigned) [103(A), Methyl 3-(6-((3-fluoro-5-(1-(4-fluorophenyl)-1H-pyrazol-4-yl)benzyl)carbamoyl)-7H-purin-8-yl)cyclobutanecarboxylate]
5 | > 10000 | > 10000 |  |  |  | COC(=O)C1CC(c2nc3ncnc(C(=O)NCc4cc(F)cc(-c5cnn(-c6ccc(F)cc6)c5)c4)c3[nH]2)C1 (single isomer, unassigned) [103(B), Methyl 3-(6-((3-fluoro-5-(1-(4-fluorophenyl)-1H-pyrazol-4-yl)benzyl)carbamoyl)-7H-purin-8-yl)cyclobutanecarboxylate]
6 | 100 to 1000 | < 100 |  |  |  | O=C(NCc1cc(F)cc(-c2cnn(-c3ccc(F)cc3)c2)c1)c1ncnc2nc(C3CCC(F)C3)[nH]c12 (single isomer, unassigned) [110(A), N-(3-Fluoro-5-(1-(4-fluorophenyl)-1H-pyrazol-4-yl)benzyl)-8-(3-fluorocyclopentyl)-7H-purine-6-carboxamide]
7 | 100 to 1000 | < 100 |  |  |  | O=C(NCc1cc(F)cc(-c2cnn(-c3ccc(F)cc3)c2)c1)c1ncnc2nc(C3CCC(F)C3)[nH]c12 (single isomer, unassigned) [110(B), N-(3-Fluoro-5-(1-(4-fluorophenyl)-1H-pyrazol-4-yl)benzyl)-8-(3-fluorocyclopentyl)-7H-purine-6-carboxamide]
8 | 100 to 1000 |  | < 100 |  |  | O=C(NCc1cc(F)cc(-c2cnn(C(F)(F)F)c2)c1)c1ncnc2nc(C3CCCC3)[nH]c12 [Example 1, 8-Cyclopentyl-N-(3-fluoro-5-(1-(trifluoromethyl)-1H-pyrazol-4-yl)benzyl)-7H-purine-6-carboxamide]
9 | 100 to 1000 |  | < 100 |  |  | O=C(NCc1cc(F)cc(-c2cnn(CC(F)F)c2)c1)c1ncnc2nc(C3CCCC3)[nH]c12 [Example 2, 8-Cyclopentyl-N-(3-(1-(2,2-difluoroethyl)-1H-pyrazol-4-yl)-5-fluorobenzyl)-7H-purine-6-carboxamide]
10 | 100 to 1000 |  | < 100 |  |  | O=C(NCc1cc(F)cc(-c2cnn(CC(F)(F)F)c2)c1)c1ncnc2nc(C3CCCC3)[nH]c12 [Example 3, 8-Cyclopentyl-N-(3-fluoro-5-(1-(2,2,2-trifluoroethyl)-1H-pyrazol-4-yl)benzyl)-7H-purine-6-carboxamide]
11 | 1000 to 10000 |  | 100 to 1000 |  |  | C[C@H](NC(=O)c1ncnc2nc(C3CCCC3)[nH]c12)c1cccc(-c2cnn(C)c2)c1 [Example 4, (S)-8-cyclopentyl-N-(1-(3-(1-methyl-1H-pyrazol-4-yl)phenyl)ethyl)-7H-purine-6-carboxamide]
12 | 1000 to 10000 |  | 100 to 1000 |  |  | Cn1cc(C(=O)Nc2cc(F)cc(CNC(=O)c3ncnc4nc(C5CCCC5)[nH]c34)c2)cn1 [Example 5, 8-Cyclopentyl-N-(3-fluoro-5-(1-methyl-1H-pyrazole-4-carboxamido)benzyl)-7H-purine-6-carboxamide]
13 | 100 to 1000 |  | < 100 |  |  | O=C(NCc1cc(F)cc(-c2cnn(-c3ccccc3)c2)c1)c1ncnc2nc(C3CCCC3)[nH]c12 [Example 7, 8-Cyclopentyl-N-(3-fluoro-5-(1-phenyl-1H-pyrazol-4-yl)benzyl)-7H-purine-6-carboxamide]
14 | 100 to 1000 |  | < 100 |  |  | Cn1cc(Nc2cc(F)cc(CNC(=O)c3ncnc4nc(C5CCCC5)[nH]c34)c2)cn1 [Example 8, 8-Cyclopentyl-N-(3-fluoro-5-((1-methyl-1H-pyrazol-4-yl)amino)benzyl)-7H-purine-6-carboxamide]
15 | 100 to 1000 |  | < 100 |  |  | O=C(NCc1cc(F)cc(-c2cnn(Cc3ccccc3)c2)c1)c1ncnc2nc(C3CCCC3)[nH]c12 [Example 9, N-(3-(1-benzyl-1H-pyrazol-4-yl)-5-fluorobenzyl)-8-cyclopentyl-7H-purine-6-carboxamide]
16 | 100 to 1000 |  | < 100 |  |  | O=C(NCc1cc(F)cc(Nc2cccnc2)c1)c1ncnc2nc(C3CCCC3)[nH]c12 [Example 10, 8-Cyclopentyl-N-(3-fluoro-5-(pyridin-3-ylamino)benzyl)-7H-purine-6-carboxamide]
17 | < 100 |  | < 100 | < 100 | < 100 | O=C(NCc1cc(F)cc(-c2cn[nH]c2)c1)c1ncnc2nc(C3CCCC3)[nH]c12 [Example 11, 8-Cyclopentyl-N-(3-fluoro-5-(1H-pyrazol-4-yl)benzyl)-7H-purine-6-carboxamide]
18 | < 100 |  | < 100 | < 100 | < 100 | O=C(NCc1cc(F)cc(-c2cnn(-c3ccncc3)c2)c1)c1ncnc2nc(C3CCCC3)[nH]c12 [Example 12, 8-Cyclopentyl-N-(3-fluoro-5-(1-(pyridin-4-yl)-1H-pyrazol-4-yl)benzyl)-7H-purine-6-carboxamide]
19 | 100 to 1000 |  | < 100 |  |  | O=C(NCc1cccc(F)c1)c1ncnc2nc(C3CCCC3)[nH]c12 [Example 13, 8-Cyclopentyl-N-(3-fluorobenzyl)-7H-purine-6-carboxamide]
20 | 100 to 1000 |  | < 100 |  |  | O=C(NCc1cc(F)cc(Nc2ccccc2)c1)c1ncnc2nc(C3CCCC3)[nH]c12 [Example 15, 8-Cyclopentyl-N-(3-fluoro-5-(phenylamino)benzyl)-7H-purine-6-carboxamide]
21 |  |  |  | < 100 | < 100 | O=C(NCc1cc(F)cc(-c2cnn(-c3ccc(F)cc3)c2)c1)c1ncnc2nc(C3CCC(F)(F)C3)[nH]c12 (stereo not shown) [Example 84, 8-(3,3-Difluorocyclopentyl)-N-(3-fluoro-5-(1-(4-fluorophenyl)-1H-pyrazol-4-yl)benzyl)-7H-purine-6-carboxamide]
